According to patent publication US20230027026A1, “FUSED PYRIMIDINE COMPOUNDS, COMPOSITIONS AND MEDICINAL APPLICATIONS THEREOF” (JUBILANT BIOSYS LIMITED, priority 2019, published 2023):
Counter-ions that a name gives are not always drawn.

Assays:
Assay type in all cases: cell-based
[1] = biological target: EGFR(D770_N771insSVD) expressing Ba/F3 stable cell line (Homo sapiens, UniProt P00533, DUP768-770, cells depend on it); test: Cellular proliferation (Alamar Blue) assay, EGFR D770_N771insSVD Ba/F3; conditions: EGFR D770_N771insSVD Ba/F3, 72 hr, read-out: D770 IC50
Sequence of EGFR(D770_N771insSVD) expressing Ba/F3 stable cell line (P00533 with tags, fused parts or gaps DUP768-770): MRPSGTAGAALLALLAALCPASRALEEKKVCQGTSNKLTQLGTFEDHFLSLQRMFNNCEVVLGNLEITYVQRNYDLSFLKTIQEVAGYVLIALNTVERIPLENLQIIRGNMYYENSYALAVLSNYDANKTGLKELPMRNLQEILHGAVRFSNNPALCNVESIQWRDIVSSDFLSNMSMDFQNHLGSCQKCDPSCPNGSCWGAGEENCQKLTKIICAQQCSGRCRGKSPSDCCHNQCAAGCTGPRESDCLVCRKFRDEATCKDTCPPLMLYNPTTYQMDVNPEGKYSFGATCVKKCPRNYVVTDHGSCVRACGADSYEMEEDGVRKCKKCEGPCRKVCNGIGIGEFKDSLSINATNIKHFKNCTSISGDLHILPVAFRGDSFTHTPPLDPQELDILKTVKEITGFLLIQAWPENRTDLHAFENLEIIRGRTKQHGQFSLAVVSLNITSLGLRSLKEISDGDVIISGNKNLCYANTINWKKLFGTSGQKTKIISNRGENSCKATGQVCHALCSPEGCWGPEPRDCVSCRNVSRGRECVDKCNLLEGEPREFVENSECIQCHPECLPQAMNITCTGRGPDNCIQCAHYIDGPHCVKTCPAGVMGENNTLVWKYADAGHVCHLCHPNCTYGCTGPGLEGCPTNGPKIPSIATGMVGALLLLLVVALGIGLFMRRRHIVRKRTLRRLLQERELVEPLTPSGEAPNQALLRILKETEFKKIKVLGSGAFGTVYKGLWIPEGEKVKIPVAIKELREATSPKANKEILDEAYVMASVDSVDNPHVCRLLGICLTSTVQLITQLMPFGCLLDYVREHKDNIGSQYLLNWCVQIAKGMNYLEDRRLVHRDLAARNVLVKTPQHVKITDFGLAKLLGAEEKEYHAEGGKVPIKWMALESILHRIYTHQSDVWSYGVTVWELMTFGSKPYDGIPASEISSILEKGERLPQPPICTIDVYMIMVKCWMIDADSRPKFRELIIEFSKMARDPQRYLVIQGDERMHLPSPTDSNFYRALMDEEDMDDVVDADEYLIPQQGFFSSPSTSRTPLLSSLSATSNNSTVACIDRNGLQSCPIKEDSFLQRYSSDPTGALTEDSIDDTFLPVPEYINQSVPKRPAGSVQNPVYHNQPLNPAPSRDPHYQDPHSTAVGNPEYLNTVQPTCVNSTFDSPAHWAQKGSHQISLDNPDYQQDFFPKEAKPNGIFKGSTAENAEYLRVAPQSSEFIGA
Method in brief: (§1)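 Viability is measured by Alamar Blue conversion over 3 h, read as fluorescence at 540/590 nm. Cells are treated for 72 h with compound spanning 10–0.0005 μM final in 3-fold dilutions, after overnight attachment; Ba/F3 cells go in at 15,000 per well in RPMI with 10% FBS.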

[2] = biological target: HER2 (A775_G776insYVMA) expressing Ba/F3 stable cell line (Homo sapiens, UniProt P04626, DUP772-775, cells depend on it); test: Cellular proliferation (Alamar Blue) assay, HER2 YVMA Ba/F3; conditions: HER2 A775_G776insYVMA Ba/F3, 72 hr, read-out: YVMA IC50
Sequence of HER2 (A775_G776insYVMA) expressing Ba/F3 stable cell line (P04626 with tags, fused parts or gaps DUP772-775): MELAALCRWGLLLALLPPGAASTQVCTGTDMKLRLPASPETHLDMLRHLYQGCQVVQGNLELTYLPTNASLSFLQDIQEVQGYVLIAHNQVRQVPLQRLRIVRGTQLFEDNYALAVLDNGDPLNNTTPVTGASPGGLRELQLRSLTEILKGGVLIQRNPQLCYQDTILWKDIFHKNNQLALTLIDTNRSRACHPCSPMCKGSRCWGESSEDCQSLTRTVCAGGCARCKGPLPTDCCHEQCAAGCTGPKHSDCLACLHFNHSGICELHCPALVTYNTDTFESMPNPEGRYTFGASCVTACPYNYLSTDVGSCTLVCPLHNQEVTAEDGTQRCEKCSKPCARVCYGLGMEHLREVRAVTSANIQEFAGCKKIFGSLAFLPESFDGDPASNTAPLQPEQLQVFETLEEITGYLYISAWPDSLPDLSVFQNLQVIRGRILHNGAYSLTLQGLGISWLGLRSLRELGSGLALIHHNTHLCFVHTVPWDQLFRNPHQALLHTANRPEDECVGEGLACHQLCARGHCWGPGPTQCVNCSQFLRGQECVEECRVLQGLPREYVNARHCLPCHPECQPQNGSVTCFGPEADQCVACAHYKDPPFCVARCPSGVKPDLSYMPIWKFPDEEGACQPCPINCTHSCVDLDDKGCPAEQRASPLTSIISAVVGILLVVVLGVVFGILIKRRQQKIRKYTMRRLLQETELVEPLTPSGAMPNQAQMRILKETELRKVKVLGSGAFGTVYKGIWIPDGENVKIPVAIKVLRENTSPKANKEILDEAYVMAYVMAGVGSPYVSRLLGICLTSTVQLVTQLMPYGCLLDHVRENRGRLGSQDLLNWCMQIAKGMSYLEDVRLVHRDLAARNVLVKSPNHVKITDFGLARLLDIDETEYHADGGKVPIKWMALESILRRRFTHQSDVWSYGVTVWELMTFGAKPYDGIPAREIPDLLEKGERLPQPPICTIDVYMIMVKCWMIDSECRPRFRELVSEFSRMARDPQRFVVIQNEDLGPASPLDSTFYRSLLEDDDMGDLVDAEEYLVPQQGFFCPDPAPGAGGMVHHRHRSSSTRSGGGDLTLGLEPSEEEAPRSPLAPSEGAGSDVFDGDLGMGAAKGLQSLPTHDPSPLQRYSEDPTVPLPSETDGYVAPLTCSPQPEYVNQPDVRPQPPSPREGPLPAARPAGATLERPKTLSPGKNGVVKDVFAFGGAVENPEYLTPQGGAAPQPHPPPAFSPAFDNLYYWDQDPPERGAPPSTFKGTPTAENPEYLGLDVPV
Procedure: Example 3: Cellular Proliferation (Alamar Blue) Assays
• 1. EGFR(D770_N771insSVD) expressing Ba/F3 stable cell line • 2. EGFR (A767_dupASV) expressing Ba/F3 stable cell line • 3. A431 cells • 4. BTER2 (A775_G776insYVMA) expressing Ba/F3 stable cell line • 5. BTER2 (WT) expressing Ba/F3 stable cell line • 6. BT-474 cells
• 1. Seed cells at 5000 for A431 and 15,000 cells for Ba/F3 in 100 μL/well in complete media (for A431: DMEM with 10% FBS and for Ba/F3 cells: RPMI with 10% FBS) in 96-well tissue culture plate. Leave outer wells without cells for background measurements. Incubate at 37 degree Celsius in 5% CO2 humidified incubator for 16-18 hours. • 2. Add 0.025 ml of 5× concentration compound dilution or DMSO control. Final compound concentration range is 10-0.0005 μM prepared in 3-fold serial dilutions. Incubate for 72 hr at 37 degree Celsius in […] humidified incubator. • 3. Add 0.0125 mL Alamar Blue™ reagent to each well with multi-channel pipette and tap gently on each side of the plate to mix. Incubate for 3 hours at 37 degree Celsius in […] humidified incubator. • 4. Read plates on fluorescence reader (Tecan Spark Control, Device: Spark, Serial #: 1801006040) at 540 nm excitation, 590 nm emission wavelength. • 5. Data analysis was performed using XLfit 5.5.0.5.

A431 cells = test: Cellular proliferation (Alamar Blue) assay, A431; conditions: Homo sapiens, A-431; A431 cells, 72 hr, Alamar Blue; read-out: A431 IC50
Method in brief: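 Seventy-two-hour growth assay with 3-fold compound titration (final 10–0.0005 μM) and Alamar Blue fluorescence end point, ex 540/em 590 nm.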

[3] = biological target: EGFR (A767_dupASV) expressing Ba/F3 stable cell line (Homo sapiens, UniProt P00533, DUP767-769, cells depend on it); test: Cellular proliferation (Alamar Blue) assay, EGFR A767_dupASV Ba/F3; conditions: EGFR A767_dupASV Ba/F3, 72 hr, read-out: A767 IC50
Sequence of EGFR (A767_dupASV) expressing Ba/F3 stable cell line (P00533 with tags, fused parts or gaps DUP767-769): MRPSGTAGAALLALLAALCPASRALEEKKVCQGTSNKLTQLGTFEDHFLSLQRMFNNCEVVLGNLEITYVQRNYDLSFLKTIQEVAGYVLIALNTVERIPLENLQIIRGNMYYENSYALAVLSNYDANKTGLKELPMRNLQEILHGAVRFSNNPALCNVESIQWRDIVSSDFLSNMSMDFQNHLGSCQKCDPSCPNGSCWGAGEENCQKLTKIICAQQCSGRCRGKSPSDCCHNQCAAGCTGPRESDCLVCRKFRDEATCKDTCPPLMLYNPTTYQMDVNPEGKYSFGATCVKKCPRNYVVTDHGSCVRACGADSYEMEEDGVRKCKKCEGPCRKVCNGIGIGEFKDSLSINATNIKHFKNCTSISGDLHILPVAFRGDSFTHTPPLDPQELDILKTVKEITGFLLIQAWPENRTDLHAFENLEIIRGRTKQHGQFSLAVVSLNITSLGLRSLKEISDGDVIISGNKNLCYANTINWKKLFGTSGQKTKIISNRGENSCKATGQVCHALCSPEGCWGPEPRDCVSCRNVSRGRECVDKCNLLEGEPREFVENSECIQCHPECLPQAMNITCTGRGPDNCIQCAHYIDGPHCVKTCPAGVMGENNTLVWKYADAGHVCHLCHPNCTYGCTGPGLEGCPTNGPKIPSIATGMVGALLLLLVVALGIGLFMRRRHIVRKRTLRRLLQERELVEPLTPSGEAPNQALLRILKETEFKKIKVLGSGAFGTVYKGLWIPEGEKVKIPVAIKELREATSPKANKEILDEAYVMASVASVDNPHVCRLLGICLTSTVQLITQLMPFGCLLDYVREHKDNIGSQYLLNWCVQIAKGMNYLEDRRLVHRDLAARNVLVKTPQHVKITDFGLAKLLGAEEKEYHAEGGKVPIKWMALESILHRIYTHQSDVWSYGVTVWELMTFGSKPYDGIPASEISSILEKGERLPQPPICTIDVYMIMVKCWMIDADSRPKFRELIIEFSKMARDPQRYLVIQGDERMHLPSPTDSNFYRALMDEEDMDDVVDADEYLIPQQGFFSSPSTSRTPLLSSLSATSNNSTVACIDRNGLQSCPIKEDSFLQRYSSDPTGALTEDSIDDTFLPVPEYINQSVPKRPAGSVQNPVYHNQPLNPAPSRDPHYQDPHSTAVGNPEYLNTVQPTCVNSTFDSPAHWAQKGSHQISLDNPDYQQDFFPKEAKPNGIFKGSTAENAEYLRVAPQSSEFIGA
Method in brief: as §1

GI50 [1] [nM]	GI50 [2] [nM]	IC50 (A431 cells) [µM]	GI50 [3] [nM]	Structure (SMILES)
28	188	≥ 10	8	C=CC(=O)Nc1cccc(N2C(=O)N(c3ccccc3)Cc3cnc(Nc4cccnc4F)nc32)c1 [Compound 115, N-(3-(7-((2-fluoropyridin-3-yl)amino)-2-oxo-3-phenyl-3,4-dihydropyrimido[4,5-d]pyrimidin-1(2H)-yl)phenyl)acrylamide]
35	13	≥ 10	27	C=CC(=O)Nc1ccc(F)c(N2C(=O)N(Cc3ccccc3)Cc3cnc(Nc4cn(C)nc4Cl)nc32)c1 [Compound 81, N-(3-(3-benzyl-7-((3-chloro-1-methyl-1H-pyrazol-4-yl)amino)-2-oxo-3,4-dihydropyrimido[4,5-d]pyrimidin-1(2H)-yl)-4-fluorophenyl)acrylamide]
1090	1150	≥ 10	164	CN(C)C/C=C/C(=O)Nc1cccc(N2C(=O)N(c3ccccc3)Cc3cnc(Nc4cccnc4F)nc32)c1 [Compound 114, (E)-4-(dimethylamino)-N-(3-(7-((2-fluoropyridin-3-yl)amino)-2-oxo-3-phenyl-3,4-dihydropyrimido[4,5-d]pyrimidin-1(2H)-yl)phenyl)but-2-enamide]
280	40	≥ 10	123	Cn1cc(Nc2ncc3c(n2)N(c2cccc(NC(=O)/C=C/CN4CCCCC4)c2)C(=O)N(Cc2ccccc2)C3)c(F)n1 [Compound 82, (E)-N-(3-(3-benzyl-7-((3-fluoro-1-methyl-1H-pyrazol-4-yl)amino)-2-oxo-3,4-dihydropyrimido[4,5-d]pyrimidin-1(2H)-yl)phenyl)-4-(piperidin-1-yl)but-2-enamide]
50	75	≥ 10	35	Cn1cc(Nc2ncc3c(n2)N(c2cccc(NC(=O)/C=C/CF)c2)C(=O)N(c2ccccc2)C3)c(Cl)n1 [Compound 117, (E)-N-(3-(7-((3-chloro-1-methyl-1H-pyrazol-4-yl)amino)-2-oxo-3-phenyl-3,4-dihydropyrimido[4,5-d]pyrimidin-1(2H)-yl)phenyl)-4-fluorobut-2-enamide]
25	80	≥ 10	11	Cn1cc(Nc2ncc3c(n2)N(c2cccc(NC(=O)/C=C/CF)c2)C(=O)N(Cc2ccccc2)C3)c(Cl)n1 [Compound 74, (E)-N-(3-(3-benzyl-7-((3-chloro-1-methyl-1H-pyrazol-4-yl)amino)-2-oxo-3,4-dihydropyrimido[4,5-d]pyrimidin-1(2H)-yl)phenyl)-4-fluorobut-2-enamide]
1110	995	8.93	926	CN(C)C/C=C/C(=O)Nc1cccc(N2C(=O)N(c3ccccc3)Cc3cnc(Nc4cn(C5CCN(C)CC5)nc4Cl)nc32)c1 [Compound 106, (E)-N-(3-(7-((3-chloro-1-(1-methylpiperidin-4-yl)-1H-pyrazol-4-yl)amino)-2-oxo-3-phenyl-3,4-dihydropyrimido[4,5-d]pyrimidin-1(2H)-yl)phenyl)-4-(dimethylamino)but-2-enamide]
123	38	1.28	94	CN(C)C/C=C/C(=O)Nc1ccc(F)c(N2C(=O)N(Cc3ccccc3)Cc3cnc(Nc4cn(C)nc4Cl)nc32)c1 [Compound 85, (E)-N-(3-(3-benzyl-7-((3-chloro-1-methyl-1H-pyrazol-4-yl)amino)-2-oxo-3,4-dihydropyrimido[4,5-d]pyrimidin-1(2H)-yl)-4-fluorophenyl)-4-(dimethylamino)but-2-enamide]
338	445	≥ 10	269	CC#CC(=O)Nc1cccc(N2C(=O)N(c3ccccc3)Cc3cnc(Nc4cn(C)nc4Cl)nc32)c1 [Compound 125, N-(3-(7-((3-chloro-1-methyl-1H-pyrazol-4-yl)amino)-2-oxo-3-phenyl-3,4-dihydropyrimido[4,5-d]pyrimidin-1(2H)-yl)phenyl)but-2-ynamide]
284	132	≥ 10	101	Cn1cc(Nc2ncc3c(n2)N(c2cccc(NC(=O)/C=C/CN4CCOCC4)c2)C(=O)N(c2ccccc2)C3)c(Cl)n1 [Compound 122, (E)-N-(3-(7-((3-chloro-1-methyl-1H-pyrazol-4-yl)amino)-2-oxo-3-phenyl-3,4-dihydropyrimido[4,5-d]pyrimidin-1(2H)-yl)phenyl)-4-morpholinobut-2-enamide]
102	103	3.64	43	C=CC(=O)Nc1cccc(N2C(=O)N(c3ccccc3)Cc3cnc(Nc4ccc(N5CCN(C)CC5)nc4)nc32)c1 [Compound 110, N-(3-(7-((6-(4-methylpiperazin-1-yl)pyridin-3-yl)amino)-2-oxo-3-phenyl-3,4-dihydropyrimido[4,5-d]pyrimidin-1(2H)-yl)phenyl)acrylamide]
120	294	> 10	43	O=C(/C=C/CF)Nc1cccc(N2C(=O)N(c3ccccc3)Cc3cnc(Nc4cccnc4F)nc32)c1 [Compound 135, (E)-4-fluoro-N-(3-(7-((2-fluoropyridin-3-yl)amino)-2-oxo-3-phenyl-3,4-dihydropyrimido[4,5-d]pyrimidin-1(2H)-yl)phenyl)but-2-enamide]
40	101	> 10	22	Cn1cc(Nc2ncc3c(n2)N(c2cccc(NC(=O)/C=C/CF)c2)C(=O)N(Cc2ccccc2)C3)c(F)n1 [Compound 88, (E)-N-(3-(3-benzyl-7-((3-fluoro-1-methyl-1H-pyrazol-4-yl)amino)-2-oxo-3,4-dihydropyrimido[4,5-d]pyrimidin-1(2H)-yl)phenyl)-4-fluorobut-2-enamide]
12	24	≥ 10	11	C=CC(=O)Nc1ccc(F)c(N2C(=O)N(c3ccccc3)Cc3cnc(Nc4cn(C)nc4Cl)nc32)c1 [Compound 128, N-(3-(7-((3-chloro-1-methyl-1H-pyrazol-4-yl)amino)-2-oxo-3-phenyl-3,4-dihydropyrimido[4,5-d]pyrimidin-1(2H)-yl)-4-fluorophenyl)acrylamide trifluoroacetate salt]
84	90	≥ 10	41	C=CC(=O)Nc1cccc(N2C(=O)N(Cc3ccccc3)Cc3cnc(Nc4ccc(N5CCN(C)CC5)nc4)nc32)c1 [Compound 67, N-(3-(3-benzyl-7-((6-(4-methylpiperazin-1-yl)pyridin-3-yl)amino)-2-oxo-3,4-dihydropyrimido[4,5-d]pyrimidin-1(2H)-yl)phenyl)acrylamide]
1090	732	≥ 10	964	CN(C)C/C=C/C(=O)Nc1cccc(N2C(=O)N(Cc3ccccc3)Cc3cnc(Nc4cn(C5CCN(C)CC5)nc4Cl)nc32)c1 [Compound 65, (E)-N-(3-(3-benzyl-7-((3-chloro-1-(1-methylpiperidin-4-yl)-1H-pyrazol-4-yl)amino)-2-oxo-3,4-dihydropyrimido[4,5-d]pyrimidin-1(2H)-yl)phenyl)-4-(dimethylamino)but-2-enamide trifluoroacetate salt]
6030	3300	≥ 10	2320	CN(C)C/C=C/C(=O)Nc1cccc(N2C(=O)N(c3ccccc3)Cc3cnc(Nc4ccc(N5CCN(C)CC5)nc4)nc32)c1 [Compound 109, (E)-4-(dimethylamino)-N-(3-(7-((6-(4-methylpiperazin-1-yl)pyridin-3-yl)amino)-2-oxo-3-phenyl-3,4-dihydropyrimido[4,5-d]pyrimidin-1(2H)-yl)phenyl)but-2-enamide]
183	158	≥ 10	107	C/C=C/C(=O)Nc1cccc(N2C(=O)N(c3ccccc3)Cc3cnc(Nc4cn(C)nc4Cl)nc32)c1 [Compound 120, (E)-N-(3-(7-((3-chloro-1-methyl-1H-pyrazol-4-yl)amino)-2-oxo-3-phenyl-3,4-dihydropyrimido[4,5-d]pyrimidin-1(2H)-yl)phenyl)but-2-enamide]
